Results: patent US5374649A, “Indole derivatives and pharmaceutical use thereof” (Glaxo S.p.A., priority 1992, dated 1994)

Legend:
[1] = target: T1, strychnine insensitive glycine binding site located on the NMDA receptor complex (Rattus norvegicus, UniProt P35439); experiment: affinity for strychnine insensitive glycine binding site (procedure of Kishimoto H. et al.); conditions: procedure of Kishimoto H. et al. J. Neurochem 1981, 37, 1015-1024
T1 construct: from tissue
Procedure: The potent and selective action of the compounds of the invention at the strychnine- insensitive glycine binding site present on the NMDA receptor complex may be readily determined using conventional test procedures. Thus the ability to bind at the strychnine insensitive glycine binding site was determined using the procedure of Kishimoto H et al. J Neurochem 1981, 37 1015-1024. The selectivity of the action of compounds of the invention for the strychnine insensitive glycine site was confirmed in studies at other ionotropic known excitatory amino acid receptors.
The affinity of the compound of the invention for strychnine insensitvie glycine binding site was determined using the procedure of Kishimoto H. et al J. Neurochem 1981, 37, 1015-1024.

NMDA induced convulsions = experiment: inhibition of NMDA induced convulsions in mice (procedure of Chiamulera C et al.); format: in vivo; conditions: mouse; iv administration; intracerebroventricular injection of NMDA; read-out: ED50 (dose required to protect 50% of the animals from the convulsive action of NMDA)
Procedure: The ability of compounds of the invention to inhibit NMDA included convulsions in the mouse was determined using the procedure of Chiamulera C et al. Psychopharmacology 1990, 102, 551-552. In this test the ability of the compound to inhibit the generalized seizures induced by an intracerebroventricular injection of NMDA in mice was examined at a number of dose levels. […] This expressed as mg/kg is referred to as the ED50 value.

Row | Compound | pKi [1] | ED50 (NMDA induced convulsions) [mg/kg]
1 | O=C(/C=C/c1c(C(=O)O)[nH]c2cc(Cl)cc(Cl)c12)Nc1ccccc1O [Example 2e, (E) 3-[2-(2-Hydroxyphenylaminocarbonyl)ethenyl]-4,6-dichloroindole-2-carboxylic acid] | 8.4 | 
2 | COc1ccc(NC(=O)/C=C/c2c(C(=O)O)[nH]c3cc(Cl)cc(Cl)c23)cc1OC [Example 2f, (E) 3-[2-(3,4-Dimethoxyphenylaminocarbonyl)ethenyl]-4,6-dichloroindole-2-carboxylic acid] | 8.1 | 0.3
3 | CCOc1ccc(NC(=O)/C=C/c2c(C(=O)O)[nH]c3cc(Cl)cc(Cl)c23)cc1 [Example 2g, (E) 3-[2(4-Ethoxyphenylaminocarbonyl)ethenyl]-4,6-dichloroindole-2-carboxylic acid] | 8.3 | 0.1
4 | O=C(/C=C/c1c(C(=O)O)[nH]c2cc(Cl)cc(Cl)c12)Nc1ccc(F)cc1F [Example 2h, (E) 3-[2-(2,4-Difluorophenylaminocarbonyl)ethenyl]-4,6-dichloroindole-2-carboxylic acid] | 8.3 | 0.3
5 | O=C(/C=C/c1c(C(=O)O)[nH]c2cc(Cl)cc(Cl)c12)Nc1cc([N+](=O)[O-])ccc1O [Example 2i] | 8.0 | 
